The values that follow come from patent US12636261B2, “Treatment of inflammation initiated by the spinal cord injury, the traumatic brain injury, stroke, in inhibition of cerebral and spinal cord edema and of inflammation in neurodegenerative, immune mediated and infectious diseases of the central nervous system” (priority 2021, dated 2026).

One may read the half-life as the time in which the quantity being followed falls by half. The term bioavailability denotes dose-corrected exposure relative to a reference, in per cent.

Like-named read-outs stand apart in the source and are kept apart here.

One data set has as its system mice. The settings on record: cited from earlier work.
The subject of data set [1] is rat model of SCI (balloon crush spinal cord injury). The data set can be described thus: Toe Pinch Withdrawal test in the rat model of SCI. It is filed as in vivo, rat (Long Evans). The settings on record: 5 mg/rat/day oral, treatment groups 2-8 weeks post-SCI; ANOVA. From the text:
In the Toe Pinch Withdrawal test, performed once every day in rats held by the tail, the sensory function and the strength of both hind limbs are scored 0-6 with 0=complete loss of reaction to the toe pinch and 6=strong, normal withdrawal in both legs after the toe pinch [Kwiecien et al, 2019, 2020b, 2020c].
(§1) Healthy male Long Evans rats aged 12 weeks, 330-360 g, were offered a fruit flavored jello cube twice a day for 1 week prior to the surgery and were separated in individual cages 3 days before the surgery. Rats were induced with 5% isoflurane in 95% oxygen flowing at a rate of 1 liter per minute and maintained at 3.5% isoflurane in 96.5% oxygen. […] In the initial experiment designed to determine the anti-inflammatory effect of 0.2, 1.0 and 5 mg per day of xanthohumol (Sigma-Aldrich) after the surgery, the rats were offered a jello cube with half of the above dose twice a day, at 8-9 hours and 15-16 hours intervals, and the consumption of the jello cube was observed and recorded every day for 7 days. […]
2. The Toe Pinch Withdrawal test [Kwiecien et al, 2021c] was performed once a day in rats held by the tail in the cage and the presence and strength of both hind legs scored 0-6 where 0=no response to the toe pinch and 6=strong, normal withdrawal response to the toe pinch in both legs.

A short description of data set [2]: Body Weight Change after the SCI surgery. It is filed as in vivo, rat (Long Evans). The note with it: 5 mg/rat/day oral. The method, then:
The Body Weight Change after the SCI surgery is recorded every 3rd day [Kwiecien et al, 2019, 2020b 2021c].
as §1, with “oxygen. The anaesthetized rats had the skin on the back shaved and prepared for surgery with 70% ethyl alcohol and 10% iodine swabs. The skin was cut over the caudal thoracic and lumbar spine and spinal muscles dissected from the vertebral spine of the thoracic 10 (T10) vertebrum and the dorsal arches of this vertebrum removed. A 3Fogarty catheter was inserted via this laminectomy over the intact dura towards the head to place the caudal edge of the 3 mm long balloon at 1 cm rostral to the laminectomy.” for “oxygen.”

Another data set has as its system SCI rats. The data set can be described thus: Toxicity observation in SCI rats under oral xanthohumol. It is filed as in vivo. The note with it: twice a day, 5 mg per day (approx. 15 mg/kg), up to 8 weeks. From the text: (§2) Healthy male Long Evans rats aged 12 weeks, 330-360 g, were offered a fruit flavored jello cube twice a day for 1 week prior to the surgery and were separated in individual cages 3 days before the surgery. Rats were induced with 5% isoflurane in 95% oxygen flowing at a rate of 1 liter per minute and maintained at 3.5% isoflurane in 96.5% oxygen. The anaesthetized rats had the skin on the back shaved and prepared for surgery with 70% ethyl alcohol and 10% iodine swabs. The skin was cut over the caudal thoracic and lumbar spine and spinal muscles dissected from the vertebral spine of the thoracic 10 (T10) vertebrum and the dorsal arches of this vertebrum removed. A 3Fogarty catheter was inserted via this laminectomy over the intact dura towards the head to place the caudal edge of the 3 mm long balloon at 1 cm rostral to the laminectomy. The balloon was inflated with 15 µL of sterile saline for 3 minutes, then deflated and the catheter removed. […] In the initial experiment designed to determine the anti-inflammatory effect of 0.2, 1.0 and 5 mg per day of xanthohumol (Sigma-Aldrich) after the surgery, the rats were offered a jello cube with half of the above dose twice a day, at 8-9 hours and 15-16 hours intervals, and the consumption of the jello cube was observed and recorded every day for 7 days. […]

For data set [3], the system named is phagocytic macrophages in the cavity of injury (COI). Put plainly: Macrophage Count in the Cavity of Injury (COI), histology LFB+H&E. The note with it: for macrophage numbers in the COI, % of the untreated controls (100%): 7 days post-SCI. It is filed as in vivo, rat (Long Evans). How it is done:
The histologic examination is performed in the series of consecutive sections, […], of the spinal cord including the lesion, stained with luxol fast blue and counterstained with hematoxylin and eosin (LFB+H&E). A necrotic and hemorrhagic lesion deep in the spinal cord is infiltrated starting at the day 3, by numerous inflammatory, CD68+/CD163− macrophages that phagocytize myelin-rich necrotic debris and red blood cells. The numbers of macrophages rapidly increase and remain high for 4 weeks after SCI after which they gradually decline [Kwiecien et al, 2020a]. Within the first week post-SCI the deep lesion is transformed into a cavity of injury (COI) when it starts to accumulate excess water from edema in the surrounding spinal cord [Kwiecien et al, 2020a, 2021d]. The macrophage count is performed in a COI in the injured spinal cord of untreated and treated rats in a standardized fashion at fixed periods of time post-surgery to determine a degree of reduction of macrophage numbers related to a tested anti-inflammatory agent [Kwiecien et al, 2019; 2020a, 2020b, 2021c]. This reduction in numbers of macrophages plotted against such numbers in controls is reliably indicative of a therapeutic effect of an anti-inflammatory agent.
Healthy male Long Evans rats aged 12 weeks, 330-360 g, were offered a fruit flavored jello cube twice a day for 1 week prior to the surgery and were separated in individual cages 3 days before the surgery. Rats were induced with 5% isoflurane in 95% oxygen flowing at a rate of 1 liter per minute and maintained at 3.5% isoflurane in 96.5% oxygen. The anaesthetized rats had the skin on the back shaved and prepared for surgery with 70% ethyl alcohol and 10% iodine swabs. The skin was cut over the caudal thoracic and lumbar spine and spinal muscles dissected from the vertebral spine of the thoracic 10 (T10) vertebrum and the dorsal arches of this vertebrum removed. A 3Fogarty catheter was inserted via this laminectomy over the intact dura towards the head to place the caudal edge of the 3 mm long balloon at 1 cm rostral to the laminectomy. The balloon was inflated with 15 µL of sterile saline for 3 minutes, then deflated and the catheter removed. The spinal muscles were closed with absorbable sutures over the laminectomy and the skin incision was closed with stainless steel staples. Before awakening, the rats were administered; 50 μL of a painkiller Anafen (ketoprofen, 100 mg/mL, Merial) subcutaneously for pain, and 50 µL of Baytril antibiotic (enrofloxacin 50 mg/mL, Bayer) intramuscular, and 3 mL of saline subcutaneous. In the initial experiment designed to determine the anti-inflammatory effect of 0.2, 1.0 and 5 mg per day of xanthohumol (Sigma-Aldrich) after the surgery, the rats were offered a jello cube with half of the above dose twice a day, at 8-9 hours and 15-16 hours intervals, and the consumption of the jello cube was observed and recorded every day for 7 days. Each treatment group had 5 rats. In the second phase of the experiment 1 jello cube alone or jello cube with 2.5 mg xanthohumol was offered twice a day for 1, 2, 4, 6, and 8 weeks. Each treatment group had 6-7 rats.
At a required experimental time point; 1, 2, 4, 6, or 8 weeks post-surgery, the SCI rats were overdosed with the sodium pentobarbital (80 mg/kg b.w.) administered intraperitoneally. When in deep plane of anaesthesia, the chest was cut open, 100 international units of heparin sodium injected into the left heart ventricle and a cannula with flowing lactated Ringer's solution inserted into the left ventricle while the right auricle was cut open. After the blood was washed out, the flow of the lactated Ringer's solution was replaced by that of phosphate buffered formalin and the carcass was fixed.
The spine was removed, postfixed in formalin overnight and then placed in formalin supplemented with 8% EDTA, pH 7.0, to decalcify the spinal vertebrae. The decalcifying solution was replaced by fresh one every 2 days for 2 weeks. […]

The conditions of data set [4]: cited from earlier work.
The next data set has as its system rats. The note with it: cited from earlier work.
In data set [5] the test system is rat model of SCI (balloon crush spinal cord injury). Put plainly: Duration of Paralysis of the Urinary Bladder in SCI rats. It is filed as in vivo, rat (Long Evans). The settings on record: 5 mg/rat/day oral.
Source text: as §2, with “laminectomy.” for “laminectomy. The balloon was inflated with 15 µL of sterile saline for 3 minutes, then deflated and the catheter removed.”
4. The duration of the distention of the urinary bladder that required manual voiding until the normal function of the urinary bladder was restored, in days, was recorded.

Data set [6] shares this test system. Put plainly: Hind End Locomotor test in the rat model of SCI. It is filed as in vivo, rat (Long Evans). The settings on record: 5 mg/rat/day oral (2.5 mg twice a day in jello), treatment groups 2-8 weeks post-SCI; ANOVA. The method, then: In the Hind End Locomotor test, performed once every day in unrestrained rats in the cage, the motor function is measured with movements of both hind legs scored 0-6 with 0=complete paralysis and 6=normal gait [Kwiecien et al, 2019, 2020b, 2020c].
as §2, with “removed.” for “removed. A 3Fogarty catheter was inserted via this laminectomy over the intact dura towards the head to place the caudal edge of the 3 mm long balloon at 1 cm rostral to the laminectomy. The balloon was inflated with 15 µL of sterile saline for 3 minutes, then deflated and the catheter removed.”
1. […] The motor function of the hind limbs was scored from 0-6 where 0=complete paralysis of both hind legs and 6=normal locomotion.

For data set [7] the following is noted: cited from earlier work. This is another data set of the same source.
For data set [8] the following is noted: cited from earlier work; for bioavailability: Wistar rats.

In the case of `COc1cc(O)c(CC=C(C)C)c(O)c1C(=O)/C=C/c1ccc(O)cc1` [xanthohumol, 2′,4′,4-trihydroxy-6′-methoxy-3′-prenylchalcone], the “toxicity after long administration of large doses” value in the data set with mice and in the data set on rats was “no toxicity” throughout. Further, the “Toe Pinch Withdrawal test score (0-6) vs untreated rats” value in [1] is on record as “statistically better”. Also, in data set [2] (groups 1, 2 and 8 weeks post-SCI), the “body weight change vs untreated controls” value is recorded as “no statistical difference”. Besides, in data set [2] (groups treated for 4 and 6 weeks), the “body weight recovery post-surgery vs untreated controls” value was “recovered statistically sooner and to a greater degree”. Besides, the toxicity of xanthohumol entry in the data set on SCI rats is given as “not observed”. The “macrophage numbers in the COI, % of the untreated controls (100%)” value stood at 73.7% in data set [3] (0.2 mg/rat/day oral, not statistically significant); 63.9% in [3] (1.0 mg/rat/day oral, p=0.026); 53.8% in data set [3] (5.0 mg/rat/day oral, dose-response study, p=0.0013). The “macrophage counts in the COI, % of the controls” value is 57.0% in data set [3] (5 mg/rat/day oral, 1 week post-SCI, second phase); 60.7% in data set [3] (5 mg/rat/day oral, 2 weeks post-SCI); 14.1% in data set [3] (5 mg/rat/day oral, 4 weeks post-SCI); 22.9% in [3] (5 mg/rat/day oral, 6 weeks post-SCI); 32.7% in data set [3] (5 mg/rat/day oral, 8 weeks post-SCI, not statistically different). In addition, the “macrophages in the COI on histologic sections (FIG. 7)” value in data set [3] (5 mg/rat/day oral, 6 and 8 weeks post-SCI) is “rare or absent”. The “bioavailability after oral administration” value in [4] is on record as “approximately 1%”. Further, in the data set on rats (16.9 mg/kg body weight daily oral), the “toxic effect of daily oral administration” value is given as “no toxic effect”. Also, the “recovery of the urinary bladder function vs untreated rats” value in data set [5] (4 weeks treatment group) is recorded as “significantly faster”; in [5] (6 weeks treatment group), “tendency for the paralyzed urinary bladder to recover faster than in controls”. Further, in [6], the “Hind End Locomotor test score (0-6) vs untreated rats” value is “significantly higher scores”. Also, the solubility in water result in data set [7] is on record as “poorly”. Also, the half-life in data set [8] (10 mg/kg intravenously) is 7.67 h. Also, the bioavailability in [8] (oral 40 mg/kg) is reported as 1.16%; in data set [8] (oral 200 mg/kg) it was 0.53%.
